Activity calls are given as the source filed them.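 How the source made its calls: active means compound that raises the TRPC4 channel signal at some tested dose, with a fitted concentration curve; inactive means the rest.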
Target: Transient receptor potential cation channel C4 (TRPC4), mouse
Experiment: TRPC4 positive allosteric modulators, dose response, cell-based, HEK293 TRPC4, Fluo-4 calcium flux (AID 493223)
Conditions: HEK293 TRPC4 cells, Fluo-4 calcium fluorescence ratio

Compound	EC50 [nM]
CCN1CCN(Cc2cc(Br)ccc2O)CC1	860
CN(C)CCN(C)Cc1cc(Br)ccc1O	1780

Same assay, conditions: HEK293 TRPC4 cells, Fluo-4 calcium fluorescence ratio; at 20 µM (top of the series)

Compound	fluorescence ratio, higher = potentiation
Oc1ccc(Cl)cc1CN1CCN(c2ncccn2)CC1	inactive
CC(C)(C)OC(=O)N1CCN(Cc2cc(Cl)ccc2O)CC1	inactive
Oc1ccc(Cl)cc1CN1CCN(CC2CCCO2)CC1 (stereo not drawn)	inactive
Oc1ccc(Cl)cc1CN1CCOc2ccccc21	inactive
Oc1ccc(Cl)cc1CN1CCN(c2ccccn2)CC1	inactive
Oc1ccc(Cl)cc1CN1CCN(c2ccc(F)cc2F)CC1	inactive
CCN(CC)Cc1cc(F)ccc1O	inactive
CC1CC(C)CN(Cc2cc(F)ccc2O)C1 (stereo not drawn)	inactive
CC(C)(C)OC(=O)N1CCN(Cc2cc(F)ccc2O)CC1	inactive
Oc1ccc(Br)cc1CN1CCCC1	inactive
COc1ccc(N2CCN(Cc3cc(Cl)ccc3O)CC2)cc1	inactive
Oc1ccc(Br)cc1CN1CCN(c2ccccn2)CC1	inactive
COc1ccc(N2CCN(Cc3cc(Br)ccc3O)CC2)cc1	inactive
Oc1ccc(F)cc1CN1CCOCC1	inactive
CC(C)(C)OC(=O)N1CCN(Cc2cc(Br)ccc2O)CC1	inactive
Oc1ccc(Cl)cc1CN1CCCC1	inactive
Oc1ccc(F)cc1CN1CCCC1	inactive
Oc1ccc(Br)cc1CN1CCN(CC2CCCO2)CC1 (stereo not drawn)	inactive
CC1CCN(Cc2cc(Cl)ccc2O)CC1	inactive
Oc1ccc(Br)cc1CN1CCC(N2CCOCC2)CC1	inactive
CN1CCN(Cc2cc(Cl)ccc2O)CC1	inactive
Oc1ccc(F)cc1CN1CCN(c2ccccn2)CC1	inactive
Oc1ccc(Br)cc1CN1CCOCC1	inactive
CN1CCN(Cc2cc(Br)ccc2O)CC1	inactive
Oc1ccc(F)cc1CN1CCC(N2CCOCC2)CC1	inactive
CCN(CC)Cc1cc(Cl)ccc1O	inactive

Compound	fluorescence ratio, higher = potentiation
Oc1ccc(Br)cc1CN1CCN(c2ccc(F)cc2F)CC1	inactive
Oc1ccc(Br)cc1CN1CCOc2ccccc21	inactive
Oc1ccc(F)cc1CN1CCCCC1	inactive
Oc1ccc(F)cc1CN1CCN(c2ncccn2)CC1	inactive
Oc1ccc(Br)cc1CN1CCN(c2ccncc2)CC1	inactive
CC1CCN(Cc2cc(F)ccc2O)CC1	inactive
CC1CCN(Cc2cc(Br)ccc2O)CC1	inactive
Oc1ccc(Cl)cc1CN1CCC(N2CCOCC2)CC1	inactive
CN1CCN(Cc2cc(F)ccc2O)CC1	inactive
Oc1ccc(Cl)cc1CN1CCN(c2ccncc2)CC1	inactive
Oc1ccc(Cl)cc1CN1CCCCC1	inactive
Oc1ccc(F)cc1CN1CCOc2ccccc21	inactive
Oc1ccc(F)cc1CN1CCN(c2ccncc2)CC1	inactive
Oc1ccc(F)cc1CN1CCN(CC2CCCO2)CC1 (stereo not drawn)	inactive
COCCN(C)Cc1cc(Br)ccc1O	inactive
CN(C)CCN(C)Cc1cc(F)ccc1O	inactive
Oc1ccc(Br)cc1CN1CCN(c2ncccn2)CC1	inactive
CC1CC(C)CN(Cc2cc(Br)ccc2O)C1 (stereo not drawn)	inactive
Oc1ccc(Br)cc1CN1CCCCC1	inactive
CC1CC(C)CN(Cc2cc(Cl)ccc2O)C1 (stereo not drawn)	inactive
COCCN(C)Cc1cc(F)ccc1O	inactive
COc1ccc(N2CCN(Cc3cc(F)ccc3O)CC2)cc1	inactive
CCN(CC)Cc1cc(Br)ccc1O	inactive
Oc1ccc(F)cc1CN1CCN(c2ccc(F)cc2F)CC1	inactive
COCCN(C)Cc1cc(Cl)ccc1O	inactive
